Measured values from US20140221225A1, “METHOD FOR OBTAINING A MULTICELLULAR SPHEROID” (Universiteit Leiden, priority 2011, published 2014).
Entries after “also recorded” stand apart in the source; their conditions may differ.

Columns and labels:
Osteosarcoma = experiment: Inhibitor treatment of spheroids from fresh human osteosarcoma biopsy in collagen gel; assay type: cell-based; settings: lowest collagen concentration 1.0 mg/ml; bright-field images after 6 days; treatment from 1 day post-injection
Description: (§1) FIG. 9: Spheroids obtained from two fresh human biopsies. […] The lowest concentration, row G, triggers the largest migration in Chondrosarcoma as well (G5) while the type of migration remains the same between the row F and row G (see F4, G5). […] Scale=100 μm.
(§2) Human biopsy material was obtained from surplus material from patients that were surgically treated for chondrosarcoma or osteosarcoma. Tumor cell suspensions were derived from biopsies by overnight collagenase treatment at room temperature.
(§3) Cell suspensions derived from trypsin-detached adherent cultures or from collagenase-treated biopsies were filtered to remove clumps, centrifuged at 1000 rpm for 5 minutes, and washed twice with PBS. ˜7×10^6 cells were re-suspended in 30 μl PBS containing 2% polyvinylpyrrolidone (PVP; Sigma-Aldrich). The PVP/cell suspension was loaded into a beveled pulled glass needle (Eppendorf CustomTip Type III, oD [μm] 60, Front surface 40, Flexibility: rigid).
(§4) Next, cell suspensions were derived from freshly isolated human biopsies of osteosarcoma and chondrosarcoma and injected in gels containing three different collagen concentrations. MS readily formed from these human biopsies and survival and migration could be studied for up to 1 week with the two tumor types showing distinct migratory behavior (FIG. 9). […] MS were treated with the range of compounds described above starting 1 day post-injection. […] Thus, the automated MS injection methodology has the potential to be used for large scale screening for the drug sensitivity spectrum of tumor cells freshly isolated from individual patients.

4T1 cells = experiment: Proof-of-principle drug screen on automatically injected 4T1 multicellular spheroids in collagen gel, 96 well plate; assay type: cell-based, mouse; settings: for Feret's Diameter (longest distance between any two points along the selection boundary, maximum caliper), averages / Circularity (4π*area/perimeter^2, 1 = perfect circle), averages / Invasion area (area day 4/area day 0), averages: 1:1000 dilution (10 μM); for Feret's Diameter (longest distance between any two points along the selection boundary, maximum caliper), averages / Circularity (4π*area/perimeter^2, 1 = perfect circle), averages: automated analysis of fluorescent actin staining at day 4; for Feret's Diameter (longest distance between any two points along the selection boundary, maximum caliper), averages: Figure 7B, ctrl 0.67, unit assumed; for Circularity (4π*area/perimeter^2, 1 = perfect circle), averages: Figure 7C, ctrl 0.15; for Invasion area (area day 4/area day 0), averages: manual from DIC images at day 0 and day 4, Figure 7A, ctrl 25.88; for Cell migration from 4T1 spheroids: visual inspection / actin images after 4 days, 4, 10, 20 μM
Procedure: as §3
A glass-bottom 96 well plate (Greiner) containing 60 μl solidified collagen gel per well was placed in a motorized stage (MTmot 200×100 MR, Märzhäuser) connected to a controller (Tango, Märzhäuser). A motorized micro-manipulator (Injectman II, Eppendorf) was positioned above the stage and connected to a pump (Femtojet Express, Eppendorf) featuring an external compressor (lubricated compressor, model 3-4, JUN-AIR). A firewire camera (DFK41BF02.H, The Imaging Source) equipped with an 8× macro lens (MR8/O, The Imaging Source) was placed beneath the stage for calibration and imaging. All components were connected to the controlling computer (Ubuntu AMD64). A multi-threaded control program was written in Python using PySerial and wxPython. Coriander software (http://damien.douxchamps.net/ieee1394/coriander) was used for imaging.
After the program was calibrated for the 96 well plate the camera height was adjusted to focus on the bottom of the 96 well plate. The plate was then removed for needle calibration: the injection needle was fixed in the Injectman and moved, using the Injectman controller, into the center of the image. The injection height was set to 200 µm above the bottom of the (virtual) plate. After the needle was moved up, the plate was placed back in position and the upper left well was used for multiple test injections to adjust pump pressure and injection time for optimization of the droplet size (300 µm diameter) using video inspection. Subsequently, using a pre-defined macro defining x-y coordinates and number of injections per well, all wells were injected using the same pressure and injection time.
Differential interference contrast (DIC) images were captured using a charged coupled device (CCD) camera with NIS Image Pro software at 10× dry objective. Quantification of spheroid invasion area was analyzed from DIC images using ImageJ. […] One-way ANOVA was performed to test the significance of the data (p<0.05). The data are presented and plotted as average and standard error of the mean; tables are available in the supplement.
For automated imaging, wells containing gel-embedded spheroids were treated with a fixation and staining cocktail containing 3.7% formaldehyde, 0.2% Triton X-100 (Sigma) and 0.1 μM rhodamine phalloidin (Sigma) for 3 hrs. Wells were washed extensively with PBS and plates were imaged on a Becton Dickinson Pathway 855 using a 4× lens. A montage of 12 frames was made for each Z plane, with a total of 24 Z planes at an interval of 50 μm. Image stacks were converted into 2D maximum fluorescence intensity projections using ImagePro 7.0. MS were then digitally segmented using ImageJ to identify the outline of individual spheroids and multiple parameters were measured, including spheroid Feret's diameter, roundness, and number of spheroids scored in each well.
LY-294002 (phosphatidylinositol 3-kinase), JSI-124-cucurbitacin (STAT3/Jak2), and NSC23766 (Rac1) were purchased from Merck/CalBiochem. PP2 (Src) and ML-7 (MLC kinase) were purchased from ENZO. Y-27632 (Rock) and SB-431542 (TGFb) were purchased from BioMol Tocris. AG1478 (EGFR) was purchased from BioMol and AG-82 (general protein tyrosine kinases) was purchased from Calbiochem. Cell migration was analyzed in the absence and presence of inhibitors for 4 days.
A proof of principle drug screen was performed to test the applicability of this procedure to automated high-throughput drug screening assays (HTS). […]

Chondrosarcoma = experiment: Inhibitor treatment of spheroids from fresh human chondrosarcoma biopsy in collagen gel; assay type: cell-based; settings: lowest collagen concentration 1.0 mg/ml; bright-field images after 6 days; treatment from 1 day post-injection
Description: as §1, §2, §3, §4

Structure (SMILES): COc1cc2ncnc(Nc3cccc(Cl)c3)c2cc1OC [AG1478]
- Migration of Osteosarcoma spheroids (Osteosarcoma): block migration; also recorded: effectively inhibited migration
- Feret's Diameter (longest distance between any two points along the selection boundary, maximum caliper), averages (4T1 cells): 0.56 mm
- Circularity (4π*area/perimeter^2, 1 = perfect circle), averages (4T1 cells): 0.19
- Invasion area (area day 4/area day 0), averages (4T1 cells): 25.75
- Migration of Chondrosarcoma spheroids (Chondrosarcoma): block migration completely; also recorded: effectively inhibited migration

Structure (SMILES): O=S(=O)(c1cccc2c(I)cccc12)N1CCCNCC1 [ML-7]
- Migration of Osteosarcoma spheroids (Osteosarcoma): block migration; also recorded: effectively inhibited migration
- Invasion area (area day 4/area day 0), averages (4T1 cells): 1.09
- Cell survival in 4T1 spheroids (4T1 cells; rhodamine phalloidin actin fluorescence, 4 days treatment): did not survive the treatment; also recorded: affected cell survival
- Cell migration from 4T1 spheroids (4T1 cells): Effects on cell migration could be clearly observed
- Migration of Chondrosarcoma spheroids (Chondrosarcoma): block migration completely; also recorded: effectively inhibited migration

Structure (SMILES): NC(=O)c1ccc(-c2nc(-c3ccc4c(c3)OCO4)c(-c3ccccn3)[nH]2)cc1 [SB-431542]
- Feret's Diameter (longest distance between any two points along the selection boundary, maximum caliper), averages (4T1 cells): 0.46 mm
- Circularity (4π*area/perimeter^2, 1 = perfect circle), averages (4T1 cells): 0.22
- Invasion area (area day 4/area day 0), averages (4T1 cells): 16

Structure (SMILES): O=c1cc(N2CCOCC2)oc2c(-c3ccccc3)cccc12 [LY-294002]
- Feret's Diameter (longest distance between any two points along the selection boundary, maximum caliper), averages (4T1 cells): 0.38 mm
- Circularity (4π*area/perimeter^2, 1 = perfect circle), averages (4T1 cells): 0.26
- Invasion area (area day 4/area day 0), averages (4T1 cells): 14.91

Structure (SMILES): C[C@@H](N)[C@H]1CC[C@H](C(=O)Nc2ccncc2)CC1 [Y-27632]
- Migration of Osteosarcoma spheroids (Osteosarcoma): stimulates migration
- Feret's Diameter (longest distance between any two points along the selection boundary, maximum caliper), averages (4T1 cells): 0.41 mm
- Circularity (4π*area/perimeter^2, 1 = perfect circle), averages (4T1 cells): 0.35
- Invasion area (area day 4/area day 0), averages (4T1 cells): 16.86
- Migration of Chondrosarcoma spheroids (Chondrosarcoma): stimulates migration

Structure (SMILES): CC(C)(C)n1nc(-c2ccc(Cl)cc2)c2c(N)ncnc21 [PP2]
- Migration of Osteosarcoma spheroids (Osteosarcoma): block migration; also recorded: effectively inhibited migration
- Feret's Diameter (longest distance between any two points along the selection boundary, maximum caliper), averages (4T1 cells): 0.55 mm
- Circularity (4π*area/perimeter^2, 1 = perfect circle), averages (4T1 cells): 0.19
- Invasion area (area day 4/area day 0), averages (4T1 cells): 22.48
- Migration of Chondrosarcoma spheroids (Chondrosarcoma): reduces migration; also recorded: effectively inhibited migration

Structure (SMILES): CCN(CC)CCCC(C)Nc1nc(C)cc(Nc2ccc3nc(C)cc(N)c3c2)n1 (centres unmarked) [NSC23766]
- Feret's Diameter (longest distance between any two points along the selection boundary, maximum caliper), averages (4T1 cells): 0.37 mm
- Circularity (4π*area/perimeter^2, 1 = perfect circle), averages (4T1 cells): 0.29
- Invasion area (area day 4/area day 0), averages (4T1 cells): 17.51

Structure (SMILES): N#CC(C#N)=Cc1cc(O)c(O)c(O)c1 [AG-82]
- Feret's Diameter (longest distance between any two points along the selection boundary, maximum caliper), averages (4T1 cells): 0.46 mm
- Circularity (4π*area/perimeter^2, 1 = perfect circle), averages (4T1 cells): 0.24
- Invasion area (area day 4/area day 0), averages (4T1 cells): 20.96

Structure (SMILES): CC(C)(O)/C=C/C(=O)[C@](C)(O)[C@H]1[C@H](O)C[C@@]2(C)[C@@H]3CC=C4[C@@H](C=C(O)C(=O)C4(C)C)[C@]3(C)C(=O)C[C@]12C [JSI-124]
- Migration of Osteosarcoma spheroids (Osteosarcoma): block migration; also recorded: effectively inhibited migration
- Feret's Diameter (longest distance between any two points along the selection boundary, maximum caliper), averages (4T1 cells): 0.23 mm
- Circularity (4π*area/perimeter^2, 1 = perfect circle), averages (4T1 cells): 0.78
- Invasion area (area day 4/area day 0), averages (4T1 cells): 1.01
- Cell migration from 4T1 spheroids (4T1 cells): Effects on cell migration could be clearly observed; also recorded: blocked migration, but left the MS intact
- Migration of Chondrosarcoma spheroids (Chondrosarcoma): block migration completely; also recorded: effectively inhibited migration
